Data: ChEMBL document CHEMBL5046241, “The novel therapeutic strategy of vilazodone-donepezil chimeras as potent triple-target ligands for the potential treatment of Alzheimer's disease with comorbid depression” (Eur J Med Chem, 2022)

Assays:
[1] = biological target: 5-hydroxytryptamine receptor 1B (Homo sapiens, UniProt P28222)
Description: Agonist activity at 5-HT1B receptor (unknown origin)

[2] = biological target: Sodium-dependent serotonin transporter (Homo sapiens, UniProt P31645); assay type: cell-based, HEK293
Cholinesterase = Cholinesterase (Mus musculus, UniProt Q03311)
Description: Inhibition of BuChE in mouse serum using butyrylthiocholine iodide as substrate incubated for 20 mins by Ellman's method

[3] = biological target: T1, 5-hydroxytryptamine receptor 1A (Homo sapiens, UniProt P08908)
T1 sequence (P08908 whole entry): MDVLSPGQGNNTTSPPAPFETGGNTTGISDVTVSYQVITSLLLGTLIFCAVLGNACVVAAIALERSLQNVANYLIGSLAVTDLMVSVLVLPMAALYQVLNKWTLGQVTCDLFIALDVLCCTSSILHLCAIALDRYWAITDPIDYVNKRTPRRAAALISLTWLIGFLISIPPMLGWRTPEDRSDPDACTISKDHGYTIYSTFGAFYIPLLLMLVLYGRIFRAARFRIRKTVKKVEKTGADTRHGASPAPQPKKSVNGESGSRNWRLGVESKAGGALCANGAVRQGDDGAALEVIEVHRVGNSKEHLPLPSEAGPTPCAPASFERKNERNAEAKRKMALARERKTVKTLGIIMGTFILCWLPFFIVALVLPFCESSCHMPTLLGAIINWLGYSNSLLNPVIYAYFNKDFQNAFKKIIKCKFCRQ
Description: Agonist activity at human 5-HT1A receptor expressed in HEK293 cells incubated for 60 mins by Eu-cAMP tracer based LANCE ultra cAMP assay

in vitro [4] = details: PAMPA
Description: Permeability of compound by PAMPA-BBB assay

Acetylcholinesterase [5] = biological target: T2, Acetylcholinesterase (Mus musculus, UniProt P21836); test: biochemical
T2 sequence (P21836 whole entry): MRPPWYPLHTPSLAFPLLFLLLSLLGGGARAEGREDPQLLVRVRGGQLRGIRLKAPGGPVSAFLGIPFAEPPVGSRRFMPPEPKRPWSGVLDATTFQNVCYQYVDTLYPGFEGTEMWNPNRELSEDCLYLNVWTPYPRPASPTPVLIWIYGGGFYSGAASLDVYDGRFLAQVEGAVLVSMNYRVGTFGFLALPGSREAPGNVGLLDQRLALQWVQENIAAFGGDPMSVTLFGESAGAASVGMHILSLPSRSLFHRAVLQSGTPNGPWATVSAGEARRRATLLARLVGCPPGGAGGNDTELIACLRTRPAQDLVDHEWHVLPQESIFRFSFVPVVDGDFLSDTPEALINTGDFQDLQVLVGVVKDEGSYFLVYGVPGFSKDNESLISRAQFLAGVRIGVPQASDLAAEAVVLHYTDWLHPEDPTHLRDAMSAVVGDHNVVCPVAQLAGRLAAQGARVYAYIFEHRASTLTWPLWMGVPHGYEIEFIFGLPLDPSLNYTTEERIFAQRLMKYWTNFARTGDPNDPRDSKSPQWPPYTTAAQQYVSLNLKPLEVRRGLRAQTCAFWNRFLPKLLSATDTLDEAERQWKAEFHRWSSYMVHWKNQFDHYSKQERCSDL
Description: Inhibition of AChE in mouse cortical homogenate using acetylthiocholine iodide as substrate incubated for 20 mins by Ellman's method

Acetylcholinesterase [6] = biological target: T2, Acetylcholinesterase; test: Inhibition of mouse AChE assessed as inhibition constant using acetylthiocholine iodide as substrate measured every 2 mins by lineweaver-burk plot analysis
Acetylcholinesterase [7] = biological target: Acetylcholinesterase (Homo sapiens, UniProt P22303); test: Inhibition of […] using acetylthiocholine iodide as substrate incubated for 20 mins by Ellman's method; parameters: species or system Erythrocyte
[8] = biological target: Voltage-gated inwardly rectifying potassium channel KCNH2 (Homo sapiens, UniProt Q12809)
Description: Inhibition of hERG expressed in CHO cells at -80 mV holding potential by automated patch clamp method

[9] = biological target: Sodium-dependent dopamine transporter (Homo sapiens, UniProt Q01959)
Description: Inhibition of dopamine transporter (unknown origin)

in vitro [10] = details: Sprague-Dawley, rat, microsomes
in vitro [11] = details: Sprague-Dawley, rat, microsomes; remark: listed apart in the source
in vitro [12] = details: CD-1, mouse, microsomes
in vitro [13] = details: CD-1, mouse, microsomes; remark: listed apart in the source
[14] = biological target: Sodium-dependent noradrenaline transporter (Homo sapiens, UniProt P23975)
Chain of Sodium-dependent noradrenaline transporter (P23975 whole entry): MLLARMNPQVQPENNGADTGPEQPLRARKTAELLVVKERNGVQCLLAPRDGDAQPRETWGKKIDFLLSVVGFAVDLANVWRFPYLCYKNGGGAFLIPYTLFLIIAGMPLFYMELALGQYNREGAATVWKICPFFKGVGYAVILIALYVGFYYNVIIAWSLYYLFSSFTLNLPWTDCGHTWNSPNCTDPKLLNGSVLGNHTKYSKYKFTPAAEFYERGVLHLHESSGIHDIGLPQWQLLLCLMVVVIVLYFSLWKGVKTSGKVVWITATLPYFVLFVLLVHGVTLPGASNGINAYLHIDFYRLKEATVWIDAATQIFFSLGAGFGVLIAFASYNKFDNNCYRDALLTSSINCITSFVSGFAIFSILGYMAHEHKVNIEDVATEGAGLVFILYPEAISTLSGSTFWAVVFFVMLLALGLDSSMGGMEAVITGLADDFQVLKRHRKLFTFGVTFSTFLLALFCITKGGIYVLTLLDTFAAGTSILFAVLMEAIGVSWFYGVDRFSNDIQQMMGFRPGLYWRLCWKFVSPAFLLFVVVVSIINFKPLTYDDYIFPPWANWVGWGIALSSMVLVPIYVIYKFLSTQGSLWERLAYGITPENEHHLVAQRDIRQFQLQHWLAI
Description: Inhibition of norepinephrine transporter (unknown origin)

Chain of 5-hydroxytryptamine receptor 1B (P28222 whole entry): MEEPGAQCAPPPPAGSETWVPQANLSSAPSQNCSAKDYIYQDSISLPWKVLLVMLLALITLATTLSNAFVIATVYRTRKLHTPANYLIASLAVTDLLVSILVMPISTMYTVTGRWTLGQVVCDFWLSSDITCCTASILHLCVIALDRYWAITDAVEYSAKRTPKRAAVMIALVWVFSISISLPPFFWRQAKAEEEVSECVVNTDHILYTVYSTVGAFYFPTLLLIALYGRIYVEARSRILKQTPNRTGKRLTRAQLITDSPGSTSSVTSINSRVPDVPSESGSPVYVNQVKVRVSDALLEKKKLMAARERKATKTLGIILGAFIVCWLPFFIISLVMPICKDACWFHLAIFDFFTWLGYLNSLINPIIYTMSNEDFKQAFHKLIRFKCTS
Chain of Cholinesterase (Q03311 whole entry): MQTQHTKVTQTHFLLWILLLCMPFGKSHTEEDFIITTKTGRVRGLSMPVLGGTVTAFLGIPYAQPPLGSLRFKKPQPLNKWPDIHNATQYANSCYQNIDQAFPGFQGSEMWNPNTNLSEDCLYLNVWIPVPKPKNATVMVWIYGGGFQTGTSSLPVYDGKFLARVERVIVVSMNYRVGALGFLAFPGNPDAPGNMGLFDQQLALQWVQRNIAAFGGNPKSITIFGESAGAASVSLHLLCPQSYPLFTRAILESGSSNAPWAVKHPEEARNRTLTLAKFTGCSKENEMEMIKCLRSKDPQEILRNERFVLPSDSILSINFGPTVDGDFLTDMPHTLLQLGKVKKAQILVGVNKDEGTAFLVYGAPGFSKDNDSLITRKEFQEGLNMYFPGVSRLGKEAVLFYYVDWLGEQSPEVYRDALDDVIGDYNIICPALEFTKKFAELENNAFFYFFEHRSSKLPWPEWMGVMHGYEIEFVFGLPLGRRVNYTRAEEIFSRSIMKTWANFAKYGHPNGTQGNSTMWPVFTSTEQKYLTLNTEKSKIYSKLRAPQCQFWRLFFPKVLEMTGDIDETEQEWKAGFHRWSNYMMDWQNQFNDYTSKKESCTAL
Chain of Sodium-dependent serotonin transporter (P31645 whole entry): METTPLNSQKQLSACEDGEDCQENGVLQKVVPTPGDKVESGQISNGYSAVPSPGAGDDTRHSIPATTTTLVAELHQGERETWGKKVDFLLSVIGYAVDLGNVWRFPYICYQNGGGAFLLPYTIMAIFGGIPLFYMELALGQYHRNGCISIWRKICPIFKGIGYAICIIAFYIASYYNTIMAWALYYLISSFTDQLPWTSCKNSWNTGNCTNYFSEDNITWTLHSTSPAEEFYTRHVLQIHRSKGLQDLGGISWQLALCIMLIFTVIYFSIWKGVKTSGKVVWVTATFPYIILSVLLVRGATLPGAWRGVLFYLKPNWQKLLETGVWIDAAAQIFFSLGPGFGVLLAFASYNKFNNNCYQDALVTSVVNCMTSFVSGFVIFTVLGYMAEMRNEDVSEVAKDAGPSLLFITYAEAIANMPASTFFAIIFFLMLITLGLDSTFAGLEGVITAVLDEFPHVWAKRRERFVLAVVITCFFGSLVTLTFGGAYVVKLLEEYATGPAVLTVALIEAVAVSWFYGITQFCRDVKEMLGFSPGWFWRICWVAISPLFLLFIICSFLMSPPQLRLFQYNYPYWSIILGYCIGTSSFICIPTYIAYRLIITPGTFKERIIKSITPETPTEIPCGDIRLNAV
Chain of Sodium-dependent dopamine transporter (Q01959 whole entry): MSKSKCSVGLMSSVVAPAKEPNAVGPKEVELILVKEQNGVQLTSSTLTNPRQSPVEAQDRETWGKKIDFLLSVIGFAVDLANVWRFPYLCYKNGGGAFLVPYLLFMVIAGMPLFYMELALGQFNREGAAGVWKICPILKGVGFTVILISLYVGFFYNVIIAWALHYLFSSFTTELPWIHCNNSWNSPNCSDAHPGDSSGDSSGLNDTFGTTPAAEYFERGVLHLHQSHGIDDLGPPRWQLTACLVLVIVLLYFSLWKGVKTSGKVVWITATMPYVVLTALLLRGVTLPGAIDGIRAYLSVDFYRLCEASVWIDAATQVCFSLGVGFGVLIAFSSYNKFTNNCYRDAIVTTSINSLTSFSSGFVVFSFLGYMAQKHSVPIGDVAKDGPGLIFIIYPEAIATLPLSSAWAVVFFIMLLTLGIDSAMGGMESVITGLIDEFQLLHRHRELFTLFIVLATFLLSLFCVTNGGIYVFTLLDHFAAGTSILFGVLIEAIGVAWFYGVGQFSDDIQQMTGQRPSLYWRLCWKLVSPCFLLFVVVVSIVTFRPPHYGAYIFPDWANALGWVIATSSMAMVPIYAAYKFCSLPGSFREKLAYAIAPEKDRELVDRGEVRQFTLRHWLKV
Chain of Voltage-gated inwardly rectifying potassium channel KCNH2 (Q12809 whole entry): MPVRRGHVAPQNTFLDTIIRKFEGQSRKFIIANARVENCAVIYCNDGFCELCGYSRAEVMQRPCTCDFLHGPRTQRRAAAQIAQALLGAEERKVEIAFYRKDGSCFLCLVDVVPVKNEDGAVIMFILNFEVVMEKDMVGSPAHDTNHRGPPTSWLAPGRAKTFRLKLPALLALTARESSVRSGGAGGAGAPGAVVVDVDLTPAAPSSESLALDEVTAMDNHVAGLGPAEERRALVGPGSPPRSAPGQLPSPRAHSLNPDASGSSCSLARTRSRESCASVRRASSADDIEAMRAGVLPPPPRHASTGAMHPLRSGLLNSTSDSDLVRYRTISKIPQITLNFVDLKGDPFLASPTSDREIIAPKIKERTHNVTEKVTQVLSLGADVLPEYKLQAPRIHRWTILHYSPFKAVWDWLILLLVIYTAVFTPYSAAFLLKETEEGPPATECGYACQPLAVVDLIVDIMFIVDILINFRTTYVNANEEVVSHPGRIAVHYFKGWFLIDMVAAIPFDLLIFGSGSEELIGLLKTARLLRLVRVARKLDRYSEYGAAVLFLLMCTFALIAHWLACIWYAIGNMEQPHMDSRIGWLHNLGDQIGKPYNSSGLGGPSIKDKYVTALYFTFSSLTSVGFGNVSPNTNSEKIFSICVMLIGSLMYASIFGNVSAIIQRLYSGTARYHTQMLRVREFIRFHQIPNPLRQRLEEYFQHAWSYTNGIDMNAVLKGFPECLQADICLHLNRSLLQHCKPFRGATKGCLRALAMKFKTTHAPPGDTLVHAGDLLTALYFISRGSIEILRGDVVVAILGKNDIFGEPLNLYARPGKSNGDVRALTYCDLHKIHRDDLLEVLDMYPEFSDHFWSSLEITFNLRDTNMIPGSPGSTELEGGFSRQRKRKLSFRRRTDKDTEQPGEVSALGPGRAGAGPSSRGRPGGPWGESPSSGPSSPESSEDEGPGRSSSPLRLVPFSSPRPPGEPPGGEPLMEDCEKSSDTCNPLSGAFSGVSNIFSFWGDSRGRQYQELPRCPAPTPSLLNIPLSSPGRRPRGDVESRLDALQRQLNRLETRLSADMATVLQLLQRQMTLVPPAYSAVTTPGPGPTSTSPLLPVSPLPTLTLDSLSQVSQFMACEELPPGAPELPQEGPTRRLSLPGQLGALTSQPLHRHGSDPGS
Chain of Acetylcholinesterase (Homo sapiens, UniProt P22303) (P22303 whole entry): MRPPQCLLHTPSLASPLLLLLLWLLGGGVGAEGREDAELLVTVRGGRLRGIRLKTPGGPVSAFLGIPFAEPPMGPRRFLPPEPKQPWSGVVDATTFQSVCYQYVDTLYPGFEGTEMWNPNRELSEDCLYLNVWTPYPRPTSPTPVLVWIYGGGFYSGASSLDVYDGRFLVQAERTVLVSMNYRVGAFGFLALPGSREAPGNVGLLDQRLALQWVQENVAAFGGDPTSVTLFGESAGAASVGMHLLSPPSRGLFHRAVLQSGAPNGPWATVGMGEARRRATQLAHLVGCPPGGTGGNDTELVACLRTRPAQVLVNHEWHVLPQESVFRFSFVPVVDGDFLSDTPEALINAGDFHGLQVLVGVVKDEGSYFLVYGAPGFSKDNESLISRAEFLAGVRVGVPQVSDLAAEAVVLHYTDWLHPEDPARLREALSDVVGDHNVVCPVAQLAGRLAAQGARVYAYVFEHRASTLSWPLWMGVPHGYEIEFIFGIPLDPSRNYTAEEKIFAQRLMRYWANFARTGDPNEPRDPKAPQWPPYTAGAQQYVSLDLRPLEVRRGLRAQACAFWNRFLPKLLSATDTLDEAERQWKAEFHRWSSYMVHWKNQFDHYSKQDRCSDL

**Q.** For CN1CCC[C@@H]1Cc1c[nH]c2ccc(CCS(=O)(=O)c3ccccc3)cc12, which EC50 [1] is on record?
**A.** 11.6 nM

**Q.** What does the source list for N#Cc1ccc2[nH]cc(CCN3CCN(c4ccc(C(=O)CCC5CCN(Cc6cc[nH]c6)CC5)cc4)CC3)c2c1?
**A.** IC50 [2]: 8.41 nM; IC50 (Cholinesterase): 3570 nM; EC50 [3]: > 1000 nM; Papp (in vitro [4]): 3.15 ×10⁻⁶ cm/s; IC50 (Acetylcholinesterase [5]): 3.54 nM

**Q.** What does the source list for N#Cc1ccc2[nH]cc(CCCCN3CCN(c4ccc(C(=O)CCC5CCN(Cc6ccccc6)CC5)cc4)CC3)c2c1?
**A.** Ki (Acetylcholinesterase [6]): 1.16 nM; IC50 [2]: 29.2 nM; IC50 (Acetylcholinesterase [7]): 0.58 nM; IC50 (Cholinesterase): 2180 nM; EC50 [3]: 58.6 nM; IC50 [8]: > 40000 nM; IC50 [9]: 1040 nM; EC50 [1]: > 30000 nM; IC50 (Acetylcholinesterase [5]): 2.29 nM

**Q.** With N#Cc1ccc2[nH]cc(CCCN3CCN(c4ccc(C(=O)CCC5CCN(Cc6ccccc6)CC5)cc4)CC3)c2c1 as the compound, how does the IC50 [2] read?
**A.** 39.9 nM

**Q.** What about the IC50 (Cholinesterase) of the same compound?
**A.** 1490 nM

**Q.** And the EC50 [3]?
**A.** 65.5 nM

**Q.** And the Papp (in vitro [4])?
**A.** 4.38 ×10⁻⁶ cm/s

**Q.** What about the IC50 (Acetylcholinesterase [5]) of the same compound?
**A.** 2.18 nM

**Q.** Which IC50 [2] does the source give for N#Cc1ccc2[nH]cc(CN3CCN(c4ccc(C(=O)CCC5CCN(Cc6ccsc6)CC5)cc4)CC3)c2c1 here?
**A.** 75.2 nM

**Q.** What about the IC50 (Cholinesterase) of the same compound?
**A.** 902 nM

**Q.** And the EC50 [3]?
**A.** > 1000 nM

**Q.** And the Papp (in vitro [4])?
**A.** 5.25 ×10⁻⁶ cm/s

**Q.** What about the IC50 (Acetylcholinesterase [5]) of the same compound?
**A.** 2.35 nM

**Q.** For N#Cc1ccc2[nH]cc(CCN3CCN(c4ccc(C(=O)CCC5CCN(Cc6ccsc6)CC5)cc4)CC3)c2c1, which IC50 [2] is on record?
**A.** 33.5 nM

**Q.** What about the IC50 (Cholinesterase) of the same compound?
**A.** 1860 nM

**Q.** And the EC50 [3]?
**A.** > 1000 nM

**Q.** What about the Papp (in vitro [4]) of the same compound?
**A.** 4.77 ×10⁻⁶ cm/s

**Q.** What about the IC50 (Acetylcholinesterase [5]) of the same compound?
**A.** 2.56 nM

**Q.** Which results are given for N#Cc1ccc2[nH]cc(CN3CCN(c4ccc(C(=O)CCC5CCN(Cc6ccccc6)CC5)cc4)CC3)c2c1?
**A.** IC50 [2]: 54.5 nM; IC50 (Cholinesterase): 979 nM; EC50 [3]: > 1000 nM; Papp (in vitro [4]): 3.67 ×10⁻⁶ cm/s; IC50 (Acetylcholinesterase [5]): 6.43 nM

**Q.** Which IC50 [2] does the source give for N#Cc1ccc2[nH]cc(CN3CCN(c4ccc(C(=O)CCC5CCN(Cc6cc[nH]c6)CC5)cc4)CC3)c2c1 here?
**A.** 12.1 nM

**Q.** And the IC50 (Cholinesterase)?
**A.** 1150 nM

**Q.** What about the EC50 [3] of the same compound?
**A.** > 1000 nM

**Q.** And the Papp (in vitro [4])?
**A.** 3.17 ×10⁻⁶ cm/s

**Q.** And the IC50 (Acetylcholinesterase [5])?
**A.** 3.42 nM

**Q.** Which IC50 [2] does the source give for N#Cc1ccc2[nH]cc(CCCN3CCN(c4ccc5c(c4)CC(CC4CCN(Cc6ccccc6)CC4)C5=O)CC3)c2c1 (stereo unspecified) here?
**A.** 18.4 nM

**Q.** And the IC50 (Cholinesterase)?
**A.** 551 nM

**Q.** And the EC50 [3]?
**A.** 316 nM

**Q.** What about the Papp (in vitro [4]) of the same compound?
**A.** 3.55 ×10⁻⁶ cm/s

**Q.** What about the IC50 (Acetylcholinesterase [5]) of the same compound?
**A.** 4.38 nM

**Q.** What does the source list for COc1cc2c(cc1OC)C(=O)C(CC1CCN(Cc3ccccc3)CC1)C2 (stereo unspecified) [DONEPEZIL]?
**A.** half-life at […] (in vitro [10]): > 145 min; microsomal CLint at […] (in vitro [11]): < 9.6 µL/min/mg; half-life at […] (in vitro [12]): 46 min; microsomal CLint at […] (in vitro [13]): 34.8 µL/min/mg

**Q.** Which microsomal CLint at […] (in vitro [11]) does the source give for C[C@]12CC[C@H]3[C@@H](CCC4=CC(=O)CC[C@@]43C)[C@@H]1CC[C@@H]2O [TESTOSTERONE] here?
**A.** 597 µL/min/mg

**Q.** And the microsomal CLint at […] (in vitro [13])?
**A.** 189 µL/min/mg

**Q.** Which IC50 [8] does the source give for N#Cc1ccc2[nH]cc(CCCCN3CCN(c4ccc5oc(C(N)=O)cc5c4)CC3)c2c1 [VILAZODONE] here?
**A.** 5550 nM

**Q.** And the IC50 [14]?
**A.** 158 nM

**Q.** What about the IC50 [9] of the same compound?
**A.** 295 nM

**Q.** And the EC50 [1]?
**A.** > 30000 nM

**Q.** What about the Papp (in vitro [4]) of the same compound?
**A.** 10.8 ×10⁻⁶ cm/s

**Q.** And the half-life at […] (in vitro [10])?
**A.** 43.8 min

**Q.** And the microsomal CLint at […] (in vitro [11])?
**A.** 31.6 µL/min/mg

**Q.** What about the half-life at […] (in vitro [12]) of the same compound?
**A.** 39.8 min

**Q.** And the microsomal CLint at […] (in vitro [13])?
**A.** 30.1 µL/min/mg

**Q.** What about the IC50 (Acetylcholinesterase [5]) of the same compound?
**A.** 21300 nM
